Measurements published in patent US9605003B2, “Heterocyclic compounds and uses thereof” (Infinity Pharmaceuticals, Inc., priority 2011, dated 2017).
Structures can show the parent of a compound that is named as a salt.

Assays:
[1] = tested on: phospho-AKT in RAJI cells; test: PI3Kδ selective cellular assay, phospho-AKT in anti-IgM stimulated RAJI cells; type: cell-based; conditions: Homo sapiens; RAJI cell model
Description: A compound's ability in selectively inhibiting PI3Kδ can be assessed using RAJI cells, i.e., B lymphocyte cells derived from lymphoma patients. Briefly, serum-starved RAJI cells are stimulated with anti-human IgM, thereby causing signaling through the B-cell receptors, as described in, for example, He et al., Leukemia Research (2009) 33: 798-802. B-cell receptor signaling is important for the activation, differentiation, and survival of B cells and certain B-cell derived cancers. Reduction of phospho-AKT is indicative of compounds that may inhibit B-cell proliferation and function in certain diseases. By monitoring the reduction of phospho-AKT in stimulated RAJI cells (using for example, phospho-AKT antibodies), a compound's potential efficacy in selectively inhibiting PI3Kδ can be assessed.
Certain compounds provided herein (e.g., Compounds 5, 38, 103, 105, 106, 107, 108, and 109) were tested in RAJI cell model using procedures as described above.

[2] = tested on: phospho-AKT in 786-O cells; test: PI3Kβ selective cellular assay, phospho-AKT in 786-O cells; type: cell-based; conditions: Homo sapiens, 786-0, 786-O cell model
Description: A compound's ability in selectively inhibiting PI3Kβ can be assessed using 786-O cells, i.e., human kidney carcinoma cell line. Briefly, 786-O cells, in which PI3Kβ is constitutively active, can be treated with test compounds. Test compounds' ability to inhibit AKT phosphorylation in 786-O cells, therefore, is indicative of selective inhibition of PI3Kβ. Thus, by monitoring the reduction of phospho-AKT in 786-O cells (using for example, phospho-AKT antibodies), a compound's potential efficacy in selectively inhibiting PI3Kβ can be assessed.
Certain compounds provided herein (e.g., Compounds 5, 38, 103, and 106) were tested in 786-O cell model using procedures as described above.

PI3Kα = biological target: T1, PI3Kα (Homo sapiens, UniProt P42336); test: PI3 Kinase HTRF assay, PI3Kα; type: biochemical; conditions: Between 1 μM and 10 μM; read-out: PI3K α IC50
T1 construct: purchased Millipore Corporation 14-602-K
Description: (§1) A PI3-Kinase HTRF® assay kit (cat No. 33-016) purchased from Millipore Corporation was used to screen compounds provided herein. This assay used specific, high affinity binding of the GRP1 pleckstrin homology (PH) domain to PIP3, the product of a Class 1A or 1B PI3 Kinase acting on its physiological substrate PIP2. During the detection phase of the assay, a complex was generated between the GST-tagged PH domain and biotinylated short chain PIP3. The biotinylated PIP3 and the GST-tagged PH domain recruited fluorophores (Streptavidin-Allophycocyanin and Europium-labeled anti-GST respectively) to form the fluorescence resonance energy transfer (FRET) architecture, generating a stable time-resolved FRET signal. The FRET complex was disrupted in a competitive manner by non-biotinylated PIP3, a product formed in the PI3 Kinase assay.
(§2) PI3 Kinase α, β, γ and δ activity was assayed using the PI3 Kinase HTRF® assay kit (catalogue No. 33-016) purchased from Millipore Corporation. Purified recombinant PI3Kα (catalogue No. 14-602-K), PI3Kβ (catalogue No. 14-603-K), PI3Kγ (catalogue No. 14-558-K) and PI3Kδ (catalogue No. 14-604-K) were obtained from Millipore Corporation. Purified recombinant PI3K enzyme was used to catalyze the phosphorylation of phosphatidylinositol 4,5-bisphosphate (PIP2 at 10 μM) to phosphatidylinositol 3,4,5-trisphosphate (PIP3) in the presence of 10 μM ATP. The assay was carried out in 384-well format and detected using a Perkin Elmer EnVision Xcite Multilabel Reader. Emission ratios were converted into percent inhibitions and imported into GraphPad Prism software. The concentration necessary to achieve inhibition of enzyme activity by 50% (IC50) was calculated using concentrations ranging from 20 μM to 0.1 nM (12-point curve). IC50 values were determined using a nonlinear regression model available in GraphPad Prism 5.

PI3Kβ = biological target: T2, PI3Kβ (Homo sapiens, UniProt P42338); test: PI3 Kinase HTRF assay, PI3Kβ; type: biochemical; conditions: Between 1 μM and 10 μM; read-out: PI3K β IC50
T2 construct: purchased Millipore Corporation 14-603-K
Description: as §1, §2

[3] = tested on: phospho-AKT in SKOV-3 cells; test: PI3Kα selective cellular assay, phospho-AKT in SKOV-3 cells; type: cell-based; conditions: Homo sapiens, SK-OV-3, SKOV-3 cell model
Description: A compound's ability in selectively inhibiting PI3Kα can be assessed using SKOV-3 cells, i.e., human ovarian carcinoma cell line. Briefly, SKOV-3 cells, in which mutant PI3Kα is constitutively active, can be treated with test compounds. Test compounds' ability to inhibit AKT phosphorylation in SKOV-3 cells, therefore, is indicative of selective inhibition of PI3Kα. Thus, by monitoring the reduction of phospho-AKT in SKOV-3 cells (using for example, phospho-AKT antibodies), a compound's potential efficacy in selectively inhibiting PI3Kα can be assessed.
Certain compounds provided herein (e.g., Compounds 5, 38, 103, and 106) were tested in SKOV-3 cell model using procedures as described above.

[4] = tested on: phospho-AKT in RAW 264.7 cells; test: PI3Kγ selective cellular assay, phospho-AKT in C5a stimulated RAW 264.7 cells; type: cell-based; conditions: Mus musculus, RAW264.7, RAW 264.7 cell model
Description: A compound's ability in selectively inhibiting PI3Kγ can be assessed using RAW264.7 macrophages. Briefly, serum-starved PAW264.7 cells are stimulated with a known GPCR agonist C5a. (See, e.g., Camps et al., Nature Medicine (2005) 11(9): 936-943). Cells can be treated with test compounds prior to, simultaneously with, or subsequent to the stimulation by C5a. RAW 264.7 cells respond to the complement component fragment C5a through activation of the C5a receptor, and the C5a receptor activates macrophages and induces cell migration. Test compounds' ability to inhibit C5a-mediated AKT phosphorylation is indicative of selective inhibition of PI3Kγ. Thus, by monitoring the reduction of phospho-AKT in stimulated RAW 264.7 cells (using for example, phospho-AKT antibodies), a compound's potential efficacy in selectively inhibiting PI3Kγ can be assessed.
Certain compounds provided herein (e.g., Compounds 5, 38, 103, 105, 106, 107, 108, and 109) were tested in RAW 264.7 cell model using procedures as described above.

[5] = tested on: p190 transduced leukemic cells; conditions: about 70 mg/kg twice daily; cited from earlier work
[6] = human plasma, 5 μM; cited from earlier work
B6.Sle1z.Sle3z model = conditions: cited from earlier work
PI3Kδ = biological target: T3, PI3Kδ (Homo sapiens, UniProt O00329); test: PI3 Kinase HTRF assay, PI3Kδ; type: biochemical; conditions: Between 1 μM and 10 μM; read-out: PI3K δ IC50
T3 construct: purchased Millipore Corporation 14-604-K
Description: as §1, §2

Balb/c splenic B cells = test: B cell activation and proliferation assay (Alamar Blue); type: cell-based; conditions: Mus musculus
Description: The ability of one or more subject compounds to inhibit B cell activitation and proliferation is determined according to standard procedures known in the art. For example, an in vitro cellular proliferation assay is established that measures the metabolic activity of live cells. The assay is performed in a 96 well microtiter plate using Alamar Blue reduction. Balb/c splenic B cells are purified over a Ficoll-Paque™ PLUS gradient followed by magnetic cell separation using a MACS B cell Isolation Kit (Miletenyi). Cells are plated in 90 μl at 50,000 cells/well in B Cell Media (RPMI+10% FBS+Penn/Strep+50 μM bME+5 mM HEPES). A compound provided herein is diluted in B Cell Media and added in a 10 μl volume. Plates are incubated for 30 min at 37° C. and 5% CO2 (0.2% DMSO final concentration). A 50 μl B cell stimulation cocktail is then added containing either 10 μg/ml LPS or 5 μg/ml F(ab′)2 Donkey anti-mouse IgM plus 2 ng/ml recombinant mouse IL4 in B Cell Media. Plates are incubated for 72 hours at 37° C. and 5% CO2. A volume of 15 μL of Alamar Blue reagent is added to each well and plates are incubated for 5 hours at 37° C. and 5% CO2. Alamar Blue fluoresce is read at 560Ex/590Em, and IC50 or EC50 values are calculated using GraphPad Prism 5.

PI3Kγ = biological target: T4, PI3Kγ (Homo sapiens, UniProt P48736); test: PI3 Kinase HTRF assay, PI3Kγ; type: biochemical; conditions: Between 1 μM and 10 μM; read-out: PI3K γ IC50
T4 construct: purchased Millipore Corporation 14-558-K
Description: as §1, §2

NZB/W model = conditions: prophylactic and therapeutic model; cited from earlier work
[7] = PBS pH 7.4, 37° C., 24 hours, 5 μM; cited from earlier work
[8] = range between 100 nM and 1 μM (bounds carry own units)

T2 sequence (P42338 whole entry): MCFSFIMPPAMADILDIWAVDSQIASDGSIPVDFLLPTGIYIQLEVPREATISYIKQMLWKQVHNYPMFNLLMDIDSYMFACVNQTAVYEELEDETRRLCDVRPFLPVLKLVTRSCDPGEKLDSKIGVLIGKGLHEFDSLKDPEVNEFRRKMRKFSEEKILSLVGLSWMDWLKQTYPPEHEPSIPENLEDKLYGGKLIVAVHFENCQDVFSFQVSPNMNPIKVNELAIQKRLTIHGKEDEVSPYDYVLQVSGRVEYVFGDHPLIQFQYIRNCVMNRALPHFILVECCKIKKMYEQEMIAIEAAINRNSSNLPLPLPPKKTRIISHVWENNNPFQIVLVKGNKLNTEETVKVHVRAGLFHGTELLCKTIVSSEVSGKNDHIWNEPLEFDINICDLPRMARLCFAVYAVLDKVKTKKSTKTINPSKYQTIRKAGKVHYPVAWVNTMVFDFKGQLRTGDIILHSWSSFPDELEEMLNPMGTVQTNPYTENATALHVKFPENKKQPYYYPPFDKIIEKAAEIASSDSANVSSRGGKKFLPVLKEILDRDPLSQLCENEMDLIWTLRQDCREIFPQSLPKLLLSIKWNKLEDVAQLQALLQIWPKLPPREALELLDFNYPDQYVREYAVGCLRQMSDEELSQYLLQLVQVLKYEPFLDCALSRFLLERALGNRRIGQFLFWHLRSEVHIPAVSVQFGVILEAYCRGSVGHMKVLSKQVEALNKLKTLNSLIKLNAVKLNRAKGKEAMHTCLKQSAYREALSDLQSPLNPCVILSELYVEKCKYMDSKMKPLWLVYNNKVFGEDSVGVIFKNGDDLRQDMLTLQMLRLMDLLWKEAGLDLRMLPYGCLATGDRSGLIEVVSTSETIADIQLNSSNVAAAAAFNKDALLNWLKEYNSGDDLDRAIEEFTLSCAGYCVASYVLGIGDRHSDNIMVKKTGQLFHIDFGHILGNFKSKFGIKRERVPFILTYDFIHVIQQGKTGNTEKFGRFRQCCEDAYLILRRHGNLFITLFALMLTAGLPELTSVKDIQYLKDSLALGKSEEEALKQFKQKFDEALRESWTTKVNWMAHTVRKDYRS
T2 sequence (P27986 2-724 partner limits assumed): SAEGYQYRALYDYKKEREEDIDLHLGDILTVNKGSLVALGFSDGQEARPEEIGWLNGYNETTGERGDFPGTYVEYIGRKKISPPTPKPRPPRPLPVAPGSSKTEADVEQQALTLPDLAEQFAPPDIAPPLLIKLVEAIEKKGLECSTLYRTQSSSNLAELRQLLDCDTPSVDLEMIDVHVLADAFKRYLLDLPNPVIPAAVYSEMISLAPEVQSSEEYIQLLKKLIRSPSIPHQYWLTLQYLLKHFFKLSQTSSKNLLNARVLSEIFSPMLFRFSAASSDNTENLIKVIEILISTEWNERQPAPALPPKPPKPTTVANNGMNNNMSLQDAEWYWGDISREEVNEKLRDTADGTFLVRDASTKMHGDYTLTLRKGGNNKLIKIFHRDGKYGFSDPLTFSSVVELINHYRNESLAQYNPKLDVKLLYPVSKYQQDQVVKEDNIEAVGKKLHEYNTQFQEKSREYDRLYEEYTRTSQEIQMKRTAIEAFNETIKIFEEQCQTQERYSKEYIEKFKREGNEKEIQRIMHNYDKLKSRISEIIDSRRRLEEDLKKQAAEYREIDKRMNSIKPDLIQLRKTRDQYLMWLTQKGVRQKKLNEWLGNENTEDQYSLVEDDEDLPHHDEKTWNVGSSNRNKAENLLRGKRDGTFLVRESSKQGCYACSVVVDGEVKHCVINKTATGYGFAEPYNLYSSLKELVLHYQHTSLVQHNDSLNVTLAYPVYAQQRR
T3 sequence (O00329 whole entry): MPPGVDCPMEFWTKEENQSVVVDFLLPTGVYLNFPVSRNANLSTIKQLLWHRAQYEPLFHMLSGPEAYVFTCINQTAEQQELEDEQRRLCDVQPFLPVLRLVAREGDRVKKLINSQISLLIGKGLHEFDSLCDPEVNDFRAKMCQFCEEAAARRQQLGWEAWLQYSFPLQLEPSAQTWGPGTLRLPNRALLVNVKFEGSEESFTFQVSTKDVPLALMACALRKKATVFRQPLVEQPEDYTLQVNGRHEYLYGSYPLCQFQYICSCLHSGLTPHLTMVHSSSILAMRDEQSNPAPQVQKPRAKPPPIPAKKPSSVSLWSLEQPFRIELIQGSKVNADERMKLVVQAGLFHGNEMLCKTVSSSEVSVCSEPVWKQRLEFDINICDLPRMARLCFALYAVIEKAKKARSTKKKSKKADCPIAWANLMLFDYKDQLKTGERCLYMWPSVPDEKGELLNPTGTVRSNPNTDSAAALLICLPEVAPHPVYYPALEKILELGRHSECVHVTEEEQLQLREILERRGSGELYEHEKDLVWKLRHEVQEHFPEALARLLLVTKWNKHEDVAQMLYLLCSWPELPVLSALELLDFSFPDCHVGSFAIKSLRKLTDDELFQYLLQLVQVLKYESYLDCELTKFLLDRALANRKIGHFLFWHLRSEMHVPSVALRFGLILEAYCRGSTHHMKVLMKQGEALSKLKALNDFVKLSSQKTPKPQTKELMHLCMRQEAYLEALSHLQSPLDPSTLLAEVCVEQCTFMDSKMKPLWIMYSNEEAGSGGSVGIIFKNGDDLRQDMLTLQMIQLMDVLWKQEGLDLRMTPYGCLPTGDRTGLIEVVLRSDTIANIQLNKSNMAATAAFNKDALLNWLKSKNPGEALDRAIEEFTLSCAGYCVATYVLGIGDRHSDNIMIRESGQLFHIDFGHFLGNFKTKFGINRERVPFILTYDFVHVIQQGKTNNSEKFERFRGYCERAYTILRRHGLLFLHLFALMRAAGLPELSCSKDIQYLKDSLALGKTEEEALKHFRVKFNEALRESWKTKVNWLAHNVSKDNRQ
T3 sequence (P27986 whole entry partner): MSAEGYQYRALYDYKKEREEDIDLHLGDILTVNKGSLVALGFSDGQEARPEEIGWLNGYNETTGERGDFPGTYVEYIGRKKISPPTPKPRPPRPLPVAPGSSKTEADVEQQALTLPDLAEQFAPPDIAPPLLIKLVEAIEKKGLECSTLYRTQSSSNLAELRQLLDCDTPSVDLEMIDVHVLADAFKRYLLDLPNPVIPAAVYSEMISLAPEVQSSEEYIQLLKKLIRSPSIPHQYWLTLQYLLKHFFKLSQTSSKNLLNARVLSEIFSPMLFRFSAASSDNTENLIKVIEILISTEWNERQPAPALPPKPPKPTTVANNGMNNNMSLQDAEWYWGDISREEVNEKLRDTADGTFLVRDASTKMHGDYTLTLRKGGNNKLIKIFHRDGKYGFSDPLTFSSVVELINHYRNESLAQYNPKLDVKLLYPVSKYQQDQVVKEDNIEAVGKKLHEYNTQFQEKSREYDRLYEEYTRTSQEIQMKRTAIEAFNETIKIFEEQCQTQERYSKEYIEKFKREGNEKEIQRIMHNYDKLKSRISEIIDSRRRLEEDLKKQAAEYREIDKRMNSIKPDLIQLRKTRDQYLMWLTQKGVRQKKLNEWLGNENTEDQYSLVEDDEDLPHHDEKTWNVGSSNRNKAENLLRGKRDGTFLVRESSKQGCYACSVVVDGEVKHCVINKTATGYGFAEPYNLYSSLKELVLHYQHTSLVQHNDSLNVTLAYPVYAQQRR
T1 sequence (P42336 whole entry): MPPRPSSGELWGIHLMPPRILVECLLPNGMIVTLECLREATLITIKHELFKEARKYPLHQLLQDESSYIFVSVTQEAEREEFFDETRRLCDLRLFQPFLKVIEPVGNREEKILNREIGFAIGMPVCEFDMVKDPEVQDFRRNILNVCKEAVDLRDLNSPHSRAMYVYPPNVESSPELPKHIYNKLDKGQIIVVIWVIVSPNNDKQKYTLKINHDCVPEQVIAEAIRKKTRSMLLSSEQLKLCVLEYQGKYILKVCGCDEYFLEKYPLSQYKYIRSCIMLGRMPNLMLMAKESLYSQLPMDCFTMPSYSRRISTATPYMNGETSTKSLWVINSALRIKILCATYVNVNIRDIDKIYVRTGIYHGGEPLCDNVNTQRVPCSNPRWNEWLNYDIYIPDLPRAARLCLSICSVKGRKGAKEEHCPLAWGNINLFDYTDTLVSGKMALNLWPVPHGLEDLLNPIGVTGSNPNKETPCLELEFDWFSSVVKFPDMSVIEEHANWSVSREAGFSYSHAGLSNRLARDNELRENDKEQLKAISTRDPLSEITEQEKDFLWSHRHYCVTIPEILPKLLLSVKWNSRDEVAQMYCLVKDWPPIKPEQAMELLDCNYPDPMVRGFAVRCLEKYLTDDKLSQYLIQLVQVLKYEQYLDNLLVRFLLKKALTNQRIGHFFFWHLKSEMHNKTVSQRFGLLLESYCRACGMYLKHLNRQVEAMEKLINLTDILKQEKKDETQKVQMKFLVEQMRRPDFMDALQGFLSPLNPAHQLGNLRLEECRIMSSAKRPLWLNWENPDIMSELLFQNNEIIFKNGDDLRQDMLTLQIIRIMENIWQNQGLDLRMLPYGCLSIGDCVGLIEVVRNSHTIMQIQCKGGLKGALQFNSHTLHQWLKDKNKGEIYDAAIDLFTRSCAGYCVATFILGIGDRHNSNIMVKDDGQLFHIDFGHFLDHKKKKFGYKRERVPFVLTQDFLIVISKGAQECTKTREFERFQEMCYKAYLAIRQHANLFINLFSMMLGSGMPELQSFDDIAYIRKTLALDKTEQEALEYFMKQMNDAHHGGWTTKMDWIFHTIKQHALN
T1 sequence (P27986 whole entry partner): as the sequence (P27986 whole entry partner) above

SMILES: CC(C)n1c([C@H](C)Nc2ncnc3scnc23)cc2cccc(-c3ccc(=O)n(C)c3)c2c1=O [Compound 103]
- IC50 [1]: < 100 nM
- IC50 [2, 8]: 100 to 1000 nM
- IC50 (PI3Kα): 1000 to 10000 nM
- IC50 (PI3Kβ): 1000 to 10000 nM
- IC50 [3, 8]: 100 to 1000 nM
- IC50 [4, 8]: 100 to 1000 nM

SMILES: COc1ncc(-c2cccc3cc([C@H](C)Nc4ncnc5scnc45)n(-c4ccon4)c(=O)c23)cn1 [Compound 106]
- IC50 [1]: < 100 nM
- IC50 [2, 8]: 100 to 1000 nM
- IC50 (PI3Kα): 1000 to 10000 nM
- IC50 (PI3Kβ): 1000 to 10000 nM
- IC50 [3, 8]: 100 to 1000 nM
- IC50 [4]: 1000 to 10000 nM

SMILES: Cc1ccc(NC(=O)c2ccc(CN3CCN(C)CC3)cc2)cc1Nc1nccc(-c2cccnc2)n1 [imatinib, Imatinib Mesylate]
- leukemogenesis [5]: delay but not cure leukemogenesis

SMILES: CCCOc1cc(N)ccc1C(=O)OCCN(CC)CC [propoxycaine]
- plasma stability [6]: low plasma stability

SMILES: CC(C)[N+](C)(CCOC(=O)C1c2ccccc2Oc2ccccc21)C(C)C [propantheline]
- plasma stability [6]: intermediate plasma stability

SMILES: CO[C@H]1C[C@@H]2CC[C@@H](C)[C@@](O)(O2)C(=O)C(=O)N2CCCC[C@H]2C(=O)O[C@H]([C@H](C)C[C@@H]2CC[C@@H](OCCO)[C@H](OC)C2)CC(=O)[C@H](C)/C=C(\C)[C@@H](O)[C@@H](OC)C(=O)[C@H](C)C[C@H](C)/C=C/C=C/C=C/1C [RAD001, everolimus]
- lupus symptoms (B6.Sle1z.Sle3z model): ameliorate lupus symptoms

SMILES: C[C@H](Nc1ncnc2scnc12)c1cc2cccc(-c3cnc4c(c3)CCCC4)c2c(=O)n1-c1ccccc1 [Compound 59]
- IC50 (PI3Kδ): 1000 to 10000 nM
- EC50 (Balb/c splenic B cells; Between 1 μM and 10 μM): 1000 to 10000 nM
- IC50 (PI3Kγ): 1000 to 10000 nM

SMILES: COc1ncc(-c2cccc3cc([C@H](C)Nc4ncnc5scnc45)n(-c4ccccc4)c(=O)c23)cn1 [Compound 38]
- IC50 [1]: < 100 nM
- IC50 [2]: 1000 to 10000 nM
- IC50 (PI3Kα): 1000 to 10000 nM
- IC50 (PI3Kβ): 1000 to 10000 nM
- IC50 [3]: 1000 to 10000 nM
- EC50 (Balb/c splenic B cells; Less than 100 nanoMolar): < 100 nM
- IC50 [4, 8]: 100 to 1000 nM

SMILES: CC(C)C[C@H](NC(=O)[C@H](Cc1ccccc1)NC(=O)c1cnccn1)B(O)O [Bortezimib, bortezomib]
- disease in NZB/W model (NZB/W model): effective at blocking disease

SMILES: O=C(O)CCCc1ccc(N(CCCl)CCCl)cc1 [chlorambucil]
- chemical stability [7]: largely hydrolyzed over the course of 24 hours

SMILES: Cc1nc2c(N[C@@H](C)c3cc4cccc(Cl)c4c(=O)n3-c3cccc(F)c3)ncnc2s1 [Compound 78]
- IC50 (PI3Kδ): 1000 to 10000 nM

SMILES: Cc1nc2c(N[C@@H](C)c3cc4cccc(-c5cnn(C)c5)c4c(=O)n3-c3ccccc3)ncnc2s1 [Compound 79]
- IC50 (PI3Kδ): 1000 to 10000 nM
- IC50 (PI3Kγ): 1000 to 10000 nM

SMILES: C[C@H](Nc1ncnc2scnc12)c1cc2cccc(C(=O)O)c2c(=O)n1-c1ccccc1 [Compound 84]
- IC50 (PI3Kδ): 1000 to 10000 nM
- EC50 (Balb/c splenic B cells; Between 100 nM and 1 μM): 100 to 1000 nM
- IC50 (PI3Kγ): 1000 to 10000 nM
